The text below walks through data of PMC12467433, “Isoniazid-Derived Hydrazones Featuring Piperazine/Piperidine Rings: Design, Synthesis, and Investigation of Antitubercular Activity” (Biomolecules, 2025).

Converted amounts (≈) assume the structure as drawn. Where two headings read alike, the source gives them in different places.

One data set deals with Mtb H37Rv. The data set is described as follows: Microplate Alamar Blue Assay (MABA), Mtb H37Rv. Format: cell-based, Mycobacterium tuberculosis. Conditions: for MIC: MABA, one-week incubation. Background: Alamar Blue is a resazurin reagent that responds to reducing activity.
Data set [1] in a line: MTT cytotoxicity assay, HEK 293. The format is cell-based. To be noted: human, HEK 293 cells, HEK 293, MTT, triplicate, read-out: Toxicity IC50. The source says: (§1) 2.2.2. Assay for Host Cytotoxicity Determination
(§2) The MTT (3-(4,5-dimethylthiazol-2-yl)-2,5-diphenyltetrazolium bromide) assay was applied to determine the cytotoxicity of the synthesized molecules against Human Embryonic Kidney cells (HEK 293) and adenocarcinomic human alveolar basal epithelial cells (A549) cell lines, obtained from the American Type Culture Collection (ATCC) with the accession numbers ATCC CRL-1573 and ATCC CCL-185, respectively. […] A vehicle control containing 1% DMSO in culture medium without any compound was included to account for any solvent-related effects. Cells were seeded at a density of 1 × 10^4 cells per well in a sterile 96-well microtiter plate and incubated for 24 h to allow attachment. Following this, the compounds were added in ten-fold serial dilutions ranging from 100 μM to 0.001 μM, and the plates were incubated for 48 h at 37 °C with 5% CO2.
(§3) After incubation, the medium was removed and replaced with 10 μL of MTT solution (5 mg/mL) in each well, followed by a 3 h incubation under the same conditions. The MTT reagent was then discarded, and 100 μL of DMSO was added to each well to solubilize the formazan crystals. Absorbance was measured at 580 nm using a Thermo Scientific Varioskan LUX microplate reader, with blanks subtracted from each value. All experiments were performed in three independent biological replicates, for every concentration tested. The IC50 values were calculated using GraphPad Prism 10.6.0 [28, 29].
A general note: Tetrazolium dyes change colour on reduction, which living cells bring about.

The next data set has as its target T1, InhA (Mycobacterium tuberculosis, UniProt P9WGR1).
T1 construct: made in house
As to the kind of experiment: InhA inhibition (NADH oxidation at 340 nm, DDCoA substrate). Format: biochemical. Conditions: for inhibition at 50 µM: at 50 μM concentration, NI: No inhibition.

The nature of data set [2]: MTT cytotoxicity assay, A549. Format: cell-based. To be noted: human, A549 cells, triplicate, read-out: Toxicity IC50.
Text: as §1, §2, §3

Where [3] appears, read: Mycobacterium tuberculosis, H37RV, 168 h.

What is called MIC50 is the lowest concentration that inhibits either 50% of growth or 50% of the strains tested, depending on the study. One may read the MIC as the lowest concentration that inhibits growth of the organism. Low readings indicate inhibition by little substance, high ones a need for much substance. The IC50 is the concentration at which inhibition is half-maximal. As usually defined, the inhibition is the percentage by which the read-out fell short of the control.

T1 sequence (P9WGR1 whole entry, looked up): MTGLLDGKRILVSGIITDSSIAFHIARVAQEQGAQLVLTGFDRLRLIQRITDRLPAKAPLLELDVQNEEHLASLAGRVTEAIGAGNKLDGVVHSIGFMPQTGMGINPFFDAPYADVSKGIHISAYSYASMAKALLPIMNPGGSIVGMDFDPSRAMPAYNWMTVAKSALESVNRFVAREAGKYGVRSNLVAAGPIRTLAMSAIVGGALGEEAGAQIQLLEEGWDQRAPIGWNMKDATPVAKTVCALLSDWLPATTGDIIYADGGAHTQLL

The compound `CN1CCN(c2ccc(C=NNC(=O)c3ccncc3)cc2)CC1` [IP10, N′-(4-(4-Methylpiperazin-1-yl)benzylidene)isonicotinohydrazide] showed an MIC50 against Mtb H37Rv (Mycobacterium tuberculosis) of 0.31 ± 0.04 µM (≈ 0.1 µg/mL). Besides, the MIC in the data set on Mtb H37Rv (setting [3]) is not above 0.78 µM. The IC50 at 48 h in data set [1] and in data set [2] was more than 100 µM in each case. This compound also yielded an inhibition at 50 µM on InhA of 30%.
Compound `Cc1ccc(N2CCN(c3ccc(C=NNC(=O)c4ccncc4)cc3)CC2)c(C)c1` [IP5, N′-(4-(4-(2,4-Dimethylphenyl)piperazin-1-yl)benzylidene)isonicotinohydrazide] gave an MIC with Mtb H37Rv (setting [3]) of 50 µM (≈ 20.7 µg/mL). This compound also displayed an inhibition at 50 µM against InhA of 16%.
In the same order, the values of `O=C(NN=Cc1ccc(N2CCN(c3ccc(C(F)(F)F)cc3)CC2)cc1)c1ccncc1` [IP6, N′-(4-(4-(4-(Trifluoromethyl)phenyl)piperazin-1-yl)benzylidene)isonicotinohydrazide] are 12.5 µM (≈ 5.67 µg/mL) and 37%.
Turning to `O=C(NN=Cc1ccc(N2CCN(c3ccccn3)CC2)cc1)c1ccncc1` [IP8, N′-(4-(4-(Pyridin-2-yl)piperazin-1-yl)benzylidene)isonicotinohydrazide], the MIC50 against Mtb H37Rv (Mycobacterium tuberculosis) amounted to 0.31 ± 0.21 µM (≈ 0.12 µg/mL). Moreover, the MIC with Mtb H37Rv (setting [3]) was not above 0.78 µM. Also, the IC50 at 48 h in data set [1] and in data set [2] was more than 100 µM throughout. This compound also had an inhibition at 50 µM at InhA of less than 10%.
As for `NNC(=O)c1ccncc1` [INH, isonicotinic acid hydrazide, reference compound], the MIC50 with Mtb H37Rv (Mycobacterium tuberculosis) is 0.23 ± 0.04 µM (≈ 0.0315 µg/mL). The MIC against Mtb H37Rv (setting [3]) is 0.39 µM (≈ 0.0535 µg/mL).
Consider `O=C(NN=Cc1ccc(N2CCN(c3ncccn3)CC2)cc1)c1ccncc1` [IP9, N′-(4-(4-(Pyrimidin-2-yl)piperazin-1-yl)benzylidene)isonicotinohydrazide], for which, in the data set on Mtb H37Rv (Mycobacterium tuberculosis), the MIC50 is 0.79 ± 0.23 µM (≈ 0.306 µg/mL). The same compound had an MIC against Mtb H37Rv (setting [3]) not above 0.78 µM. For the same compound, the IC50 at 48 h in data set [1] and in data set [2] was more than 100 µM each time. This compound also yielded an inhibition at 50 µM on InhA of less than 10%.
In turn, `O=C(NN=Cc1ccc(N2CCN(c3ccc(Cl)cc3)CC2)cc1)c1ccncc1` [IP3, N′-(4-(4-(4-Chlorophenyl)piperazin-1-yl)benzylidene)isonicotinohydrazide] returned an MIC against Mtb H37Rv (setting [3]) of 50 µM (≈ 21 µg/mL). Besides, the inhibition at 50 µM at InhA amounted to 21%.
Regarding `O=C(NN=Cc1ccc(N2CCN(c3ccccc3)CC2)cc1)c1ccncc1` [IP1, N′-(4-(4-Phenylpiperazin-1-yl)benzylidene)isonicotinohydrazide], in the data set with Mtb H37Rv (setting [3]), 50 µM (≈ 19.3 µg/mL) was the least that counted as inhibitory (MIC). This compound also had an inhibition at 50 µM on InhA of less than 10%.
On to `NC(=O)C1CCN(c2ccc(C=NNC(=O)c3ccncc3)cc2)CC1` [IP13, 1-(4-((2-Isonicotinoylhydrazono)methyl)phenyl)piperidine-4-carboxamide], for which the MIC50 in the data set with Mtb H37Rv (Mycobacterium tuberculosis) was 0.53 ± 0.24 µM (≈ 0.186 µg/mL). Besides, the MIC with Mtb H37Rv (setting [3]) was not above 0.78 µM. Also, the IC50 at 48 h in data set [1] and in data set [2] was more than 100 µM throughout. On InhA, this compound gave an inhibition at 50 µM of less than 10%.
As for `CCOC(=O)C1CCN(c2ccc(C=NNC(=O)c3ccncc3)cc2)CC1` [IP12, Ethyl 1-(4-((2-isonicotinoylhydrazono)methyl)phenyl)piperidine-4-carboxylate], in the data set on Mtb H37Rv (Mycobacterium tuberculosis), the MIC50 is 0.47 ± 0.05 µM (≈ 0.179 µg/mL). Besides, in the data set with Mtb H37Rv (setting [3]), the MIC is not above 0.78 µM. In addition, the IC50 at 48 h in data set [1] and in data set [2] was more than 100 µM each time. The compound further showed an inhibition at 50 µM at InhA of 17%.
`COc1ccc(N2CCN(c3ccc(C=NNC(=O)c4ccncc4)cc3)CC2)cc1` [IP7, N′-(4-(4-(4-Methoxyphenyl)piperazin-1-yl)benzylidene)isonicotinohydrazide]: in the data set with Mtb H37Rv (Mycobacterium tuberculosis), the MIC50 is 0.74 ± 0.1 µM (≈ 0.307 µg/mL). In the data set on Mtb H37Rv (setting [3]), this compound came in with an MIC not above 0.78 µM. At InhA, this compound came in with an inhibition at 50 µM of 10%.
Take `O=C(NN=Cc1ccc(N2CCN(c3ccccc3F)CC2)cc1)c1ccncc1` [IP2, N′-(4-(4-(2-Fluorophenyl)piperazin-1-yl)benzylidene)isonicotinohydrazide]: the MIC in the data set on Mtb H37Rv and in the data set with Mtb H37Rv (setting [3]) was more than 100 µM in each case. This compound returned an inhibition at 50 µM against InhA of 19%.
For the compound `O=C(NN=Cc1ccc(N2CCN(c3ccc(Br)cc3)CC2)cc1)c1ccncc1` [IP4, N′-(4-(4-(4-Bromophenyl)piperazin-1-yl)benzylidene)isonicotinohydrazide], in the data set on Mtb H37Rv (setting [3]), the lowest concentration to inhibit growth (MIC) was 100 µM (≈ 46.4 µg/mL). On InhA, the inhibition at 50 µM is less than 10%.
Consider `O=C(NN=Cc1ccc(N2CCN(C3CCCCC3)CC2)cc1)c1ccncc1` [IP11, N′-(4-(4-Cyclohexylpiperazin-1-yl)benzylidene)isonicotinohydrazide], for which the MIC50 is 0.29 µM (≈ 0.114 µg/mL) with Mtb H37Rv and 0.29 ± 0.05 µM (≈ 0.114 µg/mL) in the data set on Mtb H37Rv (Mycobacterium tuberculosis). The compound further yielded a minimum inhibitory concentration (MIC) with Mtb H37Rv (setting [3]) not above 0.78 µM. Also, the IC50 at 48 h in data set [1] and in data set [2] was more than 100 µM each time. On InhA, this compound gave an inhibition at 50 µM of 81%. In addition, the IC50 on InhA (read-out: IC50 against InhA enzyme) amounted to 26.4 ± 3.97 µM.
